Laboratory results from ChEMBL document CHEMBL4261581, “Synthesis and evaluation of 4-cycloheptylphenols as selective Estrogen receptor-β agonists (SERBAs)” (Eur J Med Chem, 2018).
The source made the active and inactive calls. The rule behind the calls is not given here.

Key:
[1] = species on record: Homo sapiens; test: Selectivity ratio for ERbeta (unknown origin) over ERalpha (unknown origin)
[2] = target: T1, Estrogen receptor beta (Homo sapiens, UniProt Q92731)
Description: Antagonist activity at full length ERbeta (unknown origin) assessed as reduction in E2 induced response after 24 hrs by cell based ERE-driven luciferase reporter gene assay

[3] = target: T2, Estrogen receptor (Homo sapiens, UniProt P03372); test: Antagonist activity at full length ERalpha (unknown origin) assessed as reduction in E2 induced response after 24 hrs by cell based ERE-driven luciferase reporter gene assay
T2 sequence (P03372 whole entry): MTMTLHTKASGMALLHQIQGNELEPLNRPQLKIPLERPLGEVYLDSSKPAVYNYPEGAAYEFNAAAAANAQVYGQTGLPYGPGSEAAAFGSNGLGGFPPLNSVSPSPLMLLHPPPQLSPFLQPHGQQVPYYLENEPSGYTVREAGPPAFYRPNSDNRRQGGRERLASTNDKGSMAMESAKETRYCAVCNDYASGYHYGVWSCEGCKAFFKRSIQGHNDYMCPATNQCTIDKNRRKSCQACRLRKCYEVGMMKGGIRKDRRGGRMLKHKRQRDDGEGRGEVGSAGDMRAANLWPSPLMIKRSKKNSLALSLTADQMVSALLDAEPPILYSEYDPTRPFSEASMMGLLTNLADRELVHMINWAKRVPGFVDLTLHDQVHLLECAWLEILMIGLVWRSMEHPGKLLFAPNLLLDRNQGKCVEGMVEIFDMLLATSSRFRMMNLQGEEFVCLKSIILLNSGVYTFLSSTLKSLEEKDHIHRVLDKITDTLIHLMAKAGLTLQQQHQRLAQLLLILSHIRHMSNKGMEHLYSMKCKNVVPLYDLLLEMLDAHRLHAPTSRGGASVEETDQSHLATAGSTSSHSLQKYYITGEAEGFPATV

[4] = target: T1, Estrogen receptor beta; test: Agonist activity at full length ERbeta (unknown origin) after 24 hrs by cell based ERE-driven luciferase reporter gene assay
[5] = target: T1, Estrogen receptor beta; test: Inhibition of fluorescein-tagged estrogen binding to GST-tagged ERbeta (unknown origin) ligand binding domain after 1 hr by LanthaScreen TR-FRET assay
[6] = target: T2, Estrogen receptor; test: Agonist activity at full length ERalpha (unknown origin) after 24 hrs by ERE-driven luciferase reporter gene assay
[7] = target: Peroxisome proliferator-activated receptor delta (Homo sapiens, UniProt Q03181); test: (§1) Agonist activity at GAL4 DNA-binding domain fused PPARdelta receptor (unknown origin) ligand binding domain expressed in UAS-bla HEK 293T cells assessed as beta-lactamase transcriptional activation by FRET-based GeneBLAzer assay; format: cell-based
Sequence of Peroxisome proliferator-activated receptor delta (Q03181 whole entry, the tested form may be a part): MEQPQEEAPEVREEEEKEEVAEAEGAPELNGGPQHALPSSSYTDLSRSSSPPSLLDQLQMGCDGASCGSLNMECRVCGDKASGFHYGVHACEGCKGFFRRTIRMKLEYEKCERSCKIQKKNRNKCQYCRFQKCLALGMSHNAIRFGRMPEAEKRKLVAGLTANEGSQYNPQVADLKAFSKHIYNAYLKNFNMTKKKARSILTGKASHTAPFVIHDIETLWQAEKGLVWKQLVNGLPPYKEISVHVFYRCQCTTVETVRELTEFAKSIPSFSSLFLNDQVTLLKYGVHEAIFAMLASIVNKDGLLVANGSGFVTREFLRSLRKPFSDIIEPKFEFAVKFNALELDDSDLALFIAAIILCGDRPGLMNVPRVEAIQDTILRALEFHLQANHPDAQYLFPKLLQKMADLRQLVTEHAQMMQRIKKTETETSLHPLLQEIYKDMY

[8] = target: T2, Estrogen receptor; test: Inhibition of fluorescein-tagged estrogen binding to GST-tagged ERalpha (unknown origin) ligand binding domain after 1 hr by LanthaScreen TR-FRET assay
[9] = target: Vitamin D3 receptor (Homo sapiens) (UniProt P11473); test: Agonist activity at GAL4 DNA-binding domain fused VDR (unknown origin) ligand binding domain expressed in UAS-bla HEK 293T cells assessed as beta-lactamase transcriptional activation by FRET-based GeneBLAzer assay; format: cell-based
[10] = target: T2, Estrogen receptor; test: Agonist activity at ERalpha (unknown origin) ligand binding domain assessed as fluorescein-labeled coactivator peptide recruitment by LanthaScreen TR-FRET assay
[11] = target: T1, Estrogen receptor beta; test: Agonist activity at GAL4 DNA-binding domain fused ERbeta (unknown origin) ligand binding domain expressed in UAS-bla GripTite 293 cells assessed as beta-lactamase transcriptional activation by FRET-based GeneBLAzer assay; format: cell-based
[12] = target: Peroxisome proliferator-activated receptor delta (Homo sapiens) (UniProt Q03181); test: as §1; format: cell-based
Sequence of Peroxisome proliferator-activated receptor delta (Homo sapiens) (Q03181 whole entry, the tested form may be a part): as above

[13] = target: Progesterone receptor (Homo sapiens) (UniProt P06401); test: (§2) Agonist activity at GAL4 DNA-binding domain fused PR (unknown origin) ligand binding domain expressed in UAS-bla HEK 293T cells assessed as beta-lactamase transcriptional activation by FRET-based GeneBLAzer assay; format: cell-based
Sequence of Progesterone receptor (Homo sapiens) (P06401 whole entry, the tested form may be a part): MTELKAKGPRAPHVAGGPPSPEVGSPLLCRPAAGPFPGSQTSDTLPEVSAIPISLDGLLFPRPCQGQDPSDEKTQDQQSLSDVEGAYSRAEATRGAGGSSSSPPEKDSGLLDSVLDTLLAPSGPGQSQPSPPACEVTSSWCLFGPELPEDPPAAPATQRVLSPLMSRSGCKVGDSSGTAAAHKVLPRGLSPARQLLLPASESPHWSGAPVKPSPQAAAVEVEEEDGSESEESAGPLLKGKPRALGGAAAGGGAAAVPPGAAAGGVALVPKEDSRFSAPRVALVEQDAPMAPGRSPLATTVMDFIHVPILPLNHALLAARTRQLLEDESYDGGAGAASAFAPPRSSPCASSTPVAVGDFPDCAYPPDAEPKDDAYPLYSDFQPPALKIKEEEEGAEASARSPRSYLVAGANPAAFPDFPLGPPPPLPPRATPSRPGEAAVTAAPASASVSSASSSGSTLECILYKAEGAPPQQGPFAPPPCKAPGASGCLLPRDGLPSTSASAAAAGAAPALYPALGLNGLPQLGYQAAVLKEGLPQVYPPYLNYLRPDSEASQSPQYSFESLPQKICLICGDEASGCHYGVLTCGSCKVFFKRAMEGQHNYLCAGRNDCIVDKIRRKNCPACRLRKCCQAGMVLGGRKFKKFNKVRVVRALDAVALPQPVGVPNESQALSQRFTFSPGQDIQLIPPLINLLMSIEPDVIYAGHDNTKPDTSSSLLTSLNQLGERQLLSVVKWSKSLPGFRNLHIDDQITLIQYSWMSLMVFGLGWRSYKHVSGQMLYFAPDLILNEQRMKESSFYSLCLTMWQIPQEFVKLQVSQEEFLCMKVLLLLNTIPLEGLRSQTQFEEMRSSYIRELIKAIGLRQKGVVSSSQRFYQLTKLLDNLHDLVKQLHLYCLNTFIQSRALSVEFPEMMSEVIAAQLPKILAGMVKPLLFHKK

[14] = target: T1, Estrogen receptor beta; test: Agonist activity at ERbeta (unknown origin) ligand binding domain assessed as fluorescein-labeled coactivator peptide recruitment by LanthaScreen TR-FRET assay
[15] = target: Estrogen receptor (Homo sapiens) (UniProt P03372); test: Agonist activity at GAL4 DNA-binding domain fused ERalpha (unknown origin) ligand binding domain expressed in UAS-bla GripTite 293 cells assessed as beta-lactamase transcriptional activation by FRET-based GeneBLAzer assay; format: cell-based
[16] = target: Mineralocorticoid receptor (Homo sapiens) (UniProt P08235); test: Agonist activity at GAL4 DNA-binding domain fused MR (unknown origin) ligand binding domain expressed in UAS-bla […] assessed as beta-lactamase transcriptional activation by FRET-based GeneBLAzer assay; format: cell-based
[17] = species on record: Homo sapiens; test: Selectivity index, ratio of EC50 for ERalpha (unknown origin) LBD by fluorescein-labeled coactivator peptide recruitment based LanthaScreen TR-FRET assay to EC50 for ERbeta (unknown origin) LBD by fluorescein-labeled coactivator peptide recruitment based LanthaScreen TR-FRET assay
[18] = target: Histamine H2 receptor (Homo sapiens) (UniProt P25021); test: Displacement of [3H]-histamine from human histamine H2 receptor expressed in HEKT cells at 10 uM after 90 mins by microbeta scintillation counting method; format: cell-based
Sequence of Histamine H2 receptor (Homo sapiens) (P25021 whole entry): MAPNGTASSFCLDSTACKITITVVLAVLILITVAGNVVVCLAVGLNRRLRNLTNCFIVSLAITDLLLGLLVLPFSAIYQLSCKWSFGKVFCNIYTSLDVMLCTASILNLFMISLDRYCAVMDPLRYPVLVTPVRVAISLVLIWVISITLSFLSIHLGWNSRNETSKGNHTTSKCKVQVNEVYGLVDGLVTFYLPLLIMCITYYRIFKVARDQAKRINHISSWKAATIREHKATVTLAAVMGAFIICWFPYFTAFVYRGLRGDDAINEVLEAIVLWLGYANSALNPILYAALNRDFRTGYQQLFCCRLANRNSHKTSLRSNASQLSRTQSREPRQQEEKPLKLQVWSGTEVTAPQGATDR

[19] = target: Alpha-1B adrenergic receptor (Homo sapiens) (UniProt P35368); test: Displacement of [3H]-Prazosin from human adrenergic alpha1B receptor expressed in HEKT cells at 10 uM after 90 mins by microbeta scintillation counting method; format: cell-based
Sequence of Alpha-1B adrenergic receptor (Homo sapiens) (P35368 whole entry): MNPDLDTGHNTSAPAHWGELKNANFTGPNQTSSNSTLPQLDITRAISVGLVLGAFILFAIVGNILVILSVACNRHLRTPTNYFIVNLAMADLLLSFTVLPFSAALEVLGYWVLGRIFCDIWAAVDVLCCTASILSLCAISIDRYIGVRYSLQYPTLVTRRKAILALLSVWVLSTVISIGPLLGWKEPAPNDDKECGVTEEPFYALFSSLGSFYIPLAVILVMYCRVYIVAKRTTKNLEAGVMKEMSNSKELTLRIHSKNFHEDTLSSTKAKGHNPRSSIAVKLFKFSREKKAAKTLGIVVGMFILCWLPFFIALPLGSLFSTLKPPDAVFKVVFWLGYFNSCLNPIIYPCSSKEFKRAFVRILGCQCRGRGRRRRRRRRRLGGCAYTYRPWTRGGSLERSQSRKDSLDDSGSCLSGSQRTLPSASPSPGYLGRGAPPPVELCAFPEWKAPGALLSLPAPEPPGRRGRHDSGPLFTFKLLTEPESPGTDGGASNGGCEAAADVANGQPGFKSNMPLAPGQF

[20] = target: Alpha-1A adrenergic receptor (Homo sapiens) (UniProt P35348); test: Displacement of [3H]-Prazosin from human adrenergic alpha1A receptor at 10 uM after 90 mins by microbeta scintillation counting method
[21] = system: MCF7; test: Antiproliferative activity against human MCF7 cells at 0.01 to 10 uM after 24 hrs by MTT assay; format: functional, cell-based
[22] = target: 5-hydroxytryptamine receptor 2B (Homo sapiens) (UniProt P41595); test: Displacement of [3H]-LSD from human 5-HT2B receptor expressed in stable HEK cells at 10 uM after 90 mins by microbeta scintillation counting method; format: cell-based
Sequence of 5-hydroxytryptamine receptor 2B (Homo sapiens) (P41595 whole entry): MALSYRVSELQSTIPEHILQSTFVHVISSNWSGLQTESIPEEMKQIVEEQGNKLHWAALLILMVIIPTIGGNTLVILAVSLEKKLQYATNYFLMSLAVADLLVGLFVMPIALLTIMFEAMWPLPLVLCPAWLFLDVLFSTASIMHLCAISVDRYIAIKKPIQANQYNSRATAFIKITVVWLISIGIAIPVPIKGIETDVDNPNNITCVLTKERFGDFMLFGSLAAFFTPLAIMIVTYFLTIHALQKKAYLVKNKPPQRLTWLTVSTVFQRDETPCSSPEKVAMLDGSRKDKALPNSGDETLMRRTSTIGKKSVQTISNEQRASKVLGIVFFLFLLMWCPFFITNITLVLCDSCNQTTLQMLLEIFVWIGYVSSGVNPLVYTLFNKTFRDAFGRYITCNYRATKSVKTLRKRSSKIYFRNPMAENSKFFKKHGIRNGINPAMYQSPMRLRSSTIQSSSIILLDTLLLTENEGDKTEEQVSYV

[23] = target: Histamine H2 receptor (Homo sapiens) (UniProt P25021); test: Displacement of [125I]-iodoaminopotentidine from human histamine H2 receptor expressed in HEK Flp-In cells at 10 uM after 90 mins by microbeta scintillation counting method; format: cell-based
[24] = target: Cytochrome P450 1A2 (Homo sapiens, UniProt P05177); test: Inhibition of CYP1A2 (unknown origin) using luciferin-ME as substrate preincubated for 10 mins followed by NADPH regeneration system addition and measured after 10 to 30 mins by Promega P450-GloScreening assay; format: ADME
[25] = target: Sigma non-opioid intracellular receptor 1 (Homo sapiens) (UniProt Q99720); test: Displacement of [3H]-Pentazocine from human sigma1 receptor expressed in HEKT cells at 10 uM after 90 mins by microbeta scintillation counting method; format: cell-based
Sequence of Sigma non-opioid intracellular receptor 1 (Homo sapiens) (Q99720 whole entry): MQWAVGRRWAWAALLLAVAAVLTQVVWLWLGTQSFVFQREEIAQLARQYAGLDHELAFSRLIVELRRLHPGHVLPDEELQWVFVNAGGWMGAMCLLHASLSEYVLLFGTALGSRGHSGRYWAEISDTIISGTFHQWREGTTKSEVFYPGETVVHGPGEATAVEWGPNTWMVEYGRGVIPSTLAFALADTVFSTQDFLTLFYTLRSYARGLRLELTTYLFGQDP

[26] = target: Cytochrome P450 2D6 (Homo sapiens, UniProt P10635); test: Inhibition of CYP2D6 (unknown origin) using luciferin-ME EGE as substrate preincubated for 10 mins followed by NADPH regeneration system addition and measured after 30 to 45 mins by Promega P450-GloScreening assay; format: ADME
Sequence of Cytochrome P450 2D6 (P10635 whole entry): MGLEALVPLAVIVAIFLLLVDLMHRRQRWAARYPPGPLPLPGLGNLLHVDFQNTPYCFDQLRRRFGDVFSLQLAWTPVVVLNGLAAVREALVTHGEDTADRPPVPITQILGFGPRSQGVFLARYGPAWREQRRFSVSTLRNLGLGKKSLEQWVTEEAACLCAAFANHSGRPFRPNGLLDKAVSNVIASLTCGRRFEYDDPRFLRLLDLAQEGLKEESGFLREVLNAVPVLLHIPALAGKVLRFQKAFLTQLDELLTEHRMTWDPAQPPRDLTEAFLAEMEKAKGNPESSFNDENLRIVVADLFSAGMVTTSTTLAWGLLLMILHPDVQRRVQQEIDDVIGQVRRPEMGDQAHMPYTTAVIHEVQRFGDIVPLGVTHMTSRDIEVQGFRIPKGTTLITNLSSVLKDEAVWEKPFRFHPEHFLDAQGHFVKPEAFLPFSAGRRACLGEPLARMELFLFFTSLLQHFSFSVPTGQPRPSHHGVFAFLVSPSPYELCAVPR

[27] = target: Cytochrome P450 2C9 (Homo sapiens, UniProt P11712); test: Inhibition of CYP2C9 (unknown origin) using luciferin-H as substrate preincubated for 10 mins followed by NADPH regeneration system addition and measured after 30 mins by Promega P450-GloScreening assay; format: ADME
[28] = target: 5-hydroxytryptamine receptor 1D (Homo sapiens) (UniProt P28221); test: Displacement of [3H]-5-CT from human 5-HT1D receptor expressed in HEKT cells at 10 uM after 90 mins by microbeta scintillation counting method; format: cell-based
Sequence of 5-hydroxytryptamine receptor 1D (Homo sapiens) (P28221 whole entry): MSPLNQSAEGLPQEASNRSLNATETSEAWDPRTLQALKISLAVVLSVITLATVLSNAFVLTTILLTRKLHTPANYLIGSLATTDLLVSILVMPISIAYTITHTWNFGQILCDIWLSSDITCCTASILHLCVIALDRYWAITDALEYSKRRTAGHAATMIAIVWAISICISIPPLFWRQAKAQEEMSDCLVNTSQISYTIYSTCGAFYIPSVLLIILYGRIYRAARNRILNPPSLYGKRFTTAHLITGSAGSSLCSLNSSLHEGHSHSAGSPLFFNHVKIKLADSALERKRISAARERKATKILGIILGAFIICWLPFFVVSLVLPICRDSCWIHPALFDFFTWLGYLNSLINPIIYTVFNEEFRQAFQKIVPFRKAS

[29] = target: hERG (KCNH2) (Homo sapiens, UniProt Q12809); test: Displacement of [3H]-dofetilide from human ERG expressed in HEK cells at 10 uM after 90 mins by microbeta scintillation counting method; format: cell-based; settings: HEK cells expressing human ERG, probe [3H]-dofetilide
[30] = target: Sigma intracellular receptor 2 (Homo sapiens) (UniProt Q5BJF2); test: Displacement of [3H]-ditolylguanidine from human sigma2 receptor expressed in HEKT cells at 10 uM after 90 mins by microbeta scintillation counting method; format: cell-based
[31] = target: 5-hydroxytryptamine receptor 6 (Homo sapiens) (UniProt P50406); test: Displacement of [3H]-LSD from human 5-HT6 receptor expressed in stable HEK cells at 10 uM after 90 mins by microbeta scintillation counting method; format: cell-based
[32] = Solubility of the compound in buffer containing 20 mM potassium phosphate of pH 7.5 and 1% DMSO up to 250 uM by nephelometry; format: physicochemical
[33] = target: 5-hydroxytryptamine receptor 1A (Homo sapiens) (UniProt P08908); test: Displacement of [3H]-WAY100635 from human 5HT1A receptor expressed in stable CHO cells at 10 uM after 90 mins by microbeta scintillation counting method; format: cell-based
[34] = target: Beta-3 adrenergic receptor (Homo sapiens) (UniProt P13945); test: Displacement of [3H]-CGP12177 from human adrenergic beta3 receptor expressed in Flp-In HEK cells at 10 uM after 90 mins by microbeta scintillation counting method; format: cell-based
Sequence of Beta-3 adrenergic receptor (Homo sapiens) (P13945 whole entry, looked up): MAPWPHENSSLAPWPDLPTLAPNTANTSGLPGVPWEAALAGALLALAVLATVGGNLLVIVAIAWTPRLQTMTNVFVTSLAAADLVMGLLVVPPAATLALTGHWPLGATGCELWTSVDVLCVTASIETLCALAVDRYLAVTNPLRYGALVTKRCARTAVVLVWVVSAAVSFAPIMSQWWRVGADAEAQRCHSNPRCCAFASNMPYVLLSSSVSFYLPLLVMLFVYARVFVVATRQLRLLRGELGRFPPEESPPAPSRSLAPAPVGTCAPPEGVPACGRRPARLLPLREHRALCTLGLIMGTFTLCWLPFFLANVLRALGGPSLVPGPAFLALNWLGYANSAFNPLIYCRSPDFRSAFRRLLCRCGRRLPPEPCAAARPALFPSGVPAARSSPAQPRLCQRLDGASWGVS

[35] = target: Cytochrome P450 3A4 (Homo sapiens, UniProt P08684); test: Inhibition of CYP3A4 (unknown origin) using luciferin-IPA as substrate preincubated for 10 mins followed by NADPH regeneration system addition and measured after 10 to 30 mins by Promega P450-GloScreening assay; format: ADME
[36] = target: 5-hydroxytryptamine receptor 7 (Homo sapiens) (UniProt P34969); test: Displacement of [3H]-LSD from human 5-HT7A receptor expressed in stable HEK cells at 10 uM after 90 mins by microbeta scintillation counting method; format: cell-based
[37] = target: Beta-1 adrenergic receptor (Homo sapiens) (UniProt P08588); test: Displacement of [3H]-Pindolol from human adrenergic beta1 receptor expressed in Flp-In CHO cells at 10 uM after 90 mins by microbeta scintillation counting method; format: cell-based
[38] = species on record: Homo sapiens; test: Selectivity index, ratio of IC50 for full-length human ERalpha to IC50 for full length human ERbeta
[39] = target: Progesterone receptor (Homo sapiens, UniProt P06401); test: as §2; format: cell-based
Sequence of Progesterone receptor (P06401 whole entry): as the sequence (P06401 whole entry, the tested form may be a part) above

T1 sequence (Q92731 whole entry): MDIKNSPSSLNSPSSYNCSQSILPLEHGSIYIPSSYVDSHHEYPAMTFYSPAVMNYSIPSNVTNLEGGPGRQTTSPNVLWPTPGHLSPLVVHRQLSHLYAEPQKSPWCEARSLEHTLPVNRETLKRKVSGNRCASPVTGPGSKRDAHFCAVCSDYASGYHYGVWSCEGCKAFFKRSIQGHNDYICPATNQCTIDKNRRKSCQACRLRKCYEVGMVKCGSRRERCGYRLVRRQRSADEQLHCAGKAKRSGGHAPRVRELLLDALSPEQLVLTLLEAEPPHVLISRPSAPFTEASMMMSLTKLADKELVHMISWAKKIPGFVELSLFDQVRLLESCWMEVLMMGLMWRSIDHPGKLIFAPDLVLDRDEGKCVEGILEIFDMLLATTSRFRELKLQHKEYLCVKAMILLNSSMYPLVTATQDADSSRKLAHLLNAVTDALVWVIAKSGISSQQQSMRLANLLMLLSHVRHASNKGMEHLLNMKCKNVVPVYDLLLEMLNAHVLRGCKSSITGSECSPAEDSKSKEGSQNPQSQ

Structure (SMILES) | EC50 [2] [nM] | EC50 [3] [nM] | EC50 [4] [nM] | EC50 [5] [nM] | EC50 [6] [nM] | EC50 [8] [nM] | further results
C=Cc1cc(O)cc2nc(-c3ccc(O)cc3)oc12 |  |  |  |  |  |  | Selectivity ratio [1]: 127
OCCC1CCCC(c2ccc(O)cc2)CC1 (racemic) | > 10000 | > 10000 | 139 | 75 | > 10000 |  | 
CCCc1c(OCCCOc2ccc(OCC(=O)O)cc2)ccc(C(C)=O)c1O |  |  |  |  |  |  | IC50 [7]: 12.6 nM
Oc1ccc(C23CCCC(CC2)CO3)cc1 (racemic) |  |  |  | 509 |  |  | 
OC[C@@H]1CCC[C@H](c2ccc(O)cc2)CC1 | > 11600 | > 11600 | 51 | 66 | > 11600 | 199 | Activity [9]: inactive; EC50 [10]: 2660 nM; Activity [11]: Active; Activity [12]: inactive; Activity [13]: inactive; EC50 [14]: 566 nM; Activity [15]: Active; Activity [16]: inactive; Ratio EC50 [17]: 4.7
OCC1CCCC(c2ccc(O)cc2)CC1 (racemic) | > 100000 | > 10000 | 33 | 53 | 10500 | 99 | inhibition [18]: -0.1%; inhibition [19]: -4.9%; inhibition [20]: -3.7%; Activity [21]: Active; inhibition [22]: -7.3%; inhibition [23]: 2.7%; IC50 [24]: 130000 nM; inhibition [25]: 17.1%; IC50 [26]: 73000 nM; IC50 [27]: 2700 nM; inhibition [28]: 25.3%; inhibition at 1.5 h, 10 µM [29]: -1.7%; inhibition [30]: 31.9%; inhibition [31]: 19%; solubility [32]: Soluble; inhibition [33]: 14.6%; inhibition [34]: 16%; IC50 [35]: 33000 nM; inhibition [36]: -8.5%; inhibition [37]: -4.8%
O=C1CCCC(c2ccc(O)cc2)CC1 (racemic) |  |  |  | 435 |  |  | 
OC[C@@H]1CCC[C@@H](c2ccc(O)cc2)CC1 (stereo in doubt) | > 23200 | > 10000 | 48 | 28 | > 10000 | 61 | 
C=Cc1cc(O)cc2nc(-c3ccc(O)c(F)c3)oc12 |  |  |  |  |  |  | Ratio IC50 [38]: 255
O/N=C1\CCCC(c2ccc(O)cc2)CC1 (racemic) | > 10000 | > 10000 | > 800 | 600 | > 10000 |  | 
N#Cc1cc(O)cc2c3c(oc12)-c1ccc(O)cc1CC3 |  |  |  |  |  |  | Selectivity ratio [1]: 157
CCC(=O)[C@@]1(C)CC[C@H]2[C@@H]3CCC4=CC(=O)CCC4=C3CC[C@@]21C [PROMEGESTONE] |  |  |  |  |  |  | IC50 [39]: 0.236 nM
OC[C@H]1CCC[C@@H](c2ccc(O)cc2)CC1 | > 10000 | > 10000 | 121 | 99 | > 10000 | 221 | 
OC[C@H]1CCC[C@H](c2ccc(O)cc2)CC1 (stereo in doubt) | > 35600 | > 35600 | 50 | 18 | > 3000 | 96 | 
Oc1ccc(C2CCCC(O)CC2)cc1 (racemic) | > 10000 | > 10000 | 362 | 42 | > 10000 |  | 
